According to patent US7932036B1, “Methods of determining acute myeloid leukemia response to treatment with farnesyltransferase” (Veridex, LLC, priority 2008, dated 2011):

What was measured:
[1] = test system: previously untreated, poor-risk acute myeloid leukemia (AML); assay: Phase 2 study of tipifarnib in older adults with previously untreated, poor-risk AML: clinical response and overall survival; assay type: in vivo, human
Text: The current study utilized 67 bone marrow samples collected from an open label, multicenter, non-comparative phase 2 study investigating the efficacy and safety of farnesyltransferase inhibition with tipifarnib (R115777, ZARNESTRA®) in 158 older adults with previously untreated, poor-risk AML. The clinical results have been published elsewhere. Lancet et al. (2006).
Lancet et al. (2006). Briefly, HI was defined as any bone marrow blast count less than 5% or a reduction in bone marrow blasts by at least half. Progressive disease (PD) was defined as either >50% increase in bone marrow or circulating blast % from baseline, or new appearance of circulating blasts (on at least 2 consecutive occasions). Stable disease (SD) was defined as any response not meeting CR, PR, HI, or PD criteria.
This study examined gene expression profiles of leukemic bone marrow samples from patients enrolled in a Phase 2 clinical trial of the farnesyltransferase inhibitor tipifarnib in elderly patients with previously untreated poor-risk acute myelogenous leukemia. Lancet et al. (2006). Bone marrow from 67 patients was collected before treatment with tipifarnib and leukemic myeloid cells were enriched by Ficoll-density centrifugation (Table 1). Good quality total RNA from 13 responders (9 CR, 4 HI), 8 stable disease and 13 progressive disease patients was amplified, labeled, and hybridized to the Affymetrix U133A GeneChip. A total of 30 samples were evaluated by qPCR for validation of specific genes and 32 samples were evaluated for N-Ras mutational status.

[2] = test system: relapsed or refractory AML; assay: Independent set of 54 relapsed/refractory AML patients treated with tipifarnib; assay type: in vivo, human; details: for difference in overall survival between predicted responders and progressors: relapsed/refractory AML
Text: We next performed external validation of the TSP classifier in an independent microarray dataset comprising of 54 relapsed/refractory AML patient samples. 20070048782. Importantly, a diagnostic assay that aims to predict response to a cancer therapy should have a high sensitivity (and negative predictive value) since it is important to capture as many potential responders as possible. Therefore, to define an appropriate cutoff for testing the TSP classifier we considered the need to obtain a high sensitivity of predicting responders while maintaining an acceptable level of specificity. In the training set, the level of specificity that could be achieved ranged from approximately 30% to 100% when the sensitivity was set at 100% to 80%, respectively. To ensure the classifier would predict as many responders as possible we tested a conservative cutoff that provided a specificity of approximately 60% in the training set. When this cutoff was applied to the independent testing set of relapsed/refractory AML, the RASGRP1:APTX gene classifier stratified responders with 92% NPV and 27.6% PPV (compared to 18.5% prevalence) (FIG. 3C). The associated odds ratio for being a responder was 4.38.
In the absence of a larger independent set of newly diagnosed AML samples we also utilized 54 relapsed or refractory AML samples from our previous investigation as an independent testing set (20070048782). […] Since the prevalence of responders in that dataset was 18% this represents an improvement of overall response of approximately 50%. […] Importantly we found no association with the two-gene classifier and patient prognosis in an independent set of AML patients who were treated with chemotherapeutics. […] Further work needs to be done to clarify whether the RASGRP1:APTX expression ratio has utility for other classes of FTIs.

[3] = Kaplan Meier, RASGRP1 gene classifier, newly diagnosed AML (FIG. 1B)
[4] = RASGRP1:APTX qPCR classifier, cut-point 0, 30 newly diagnosed AML samples

In the case of `Cn1cncc1[C@@](N)(c1ccc(Cl)cc1)c1ccc2c(c1)c(-c1cccc(Cl)c1)cc(=O)n2C` [tipifarnib], the “median overall survival of the responders” value [1, 3] is reported as 386 days, the “median overall survival of those with progressive disease” value [1, 3] is reported as 68 days and the “median overall survival of the predicted resistant patients” value [1, 4] is reported as 82 days. For the same molecule, the “median overall survival of those classified as responders” value [1, 4] was 295 days, the “difference in overall survival between predicted responders and non-responders” value ([1]; RASGRP1:APTX top scoring pair, training set, newly diagnosed AML) was 357 days and the prevalence of responders ([2]; 54 relapsed/refractory AML patient samples) was 18%. For the same molecule, the “difference in overall survival between predicted responders and progressors” value ([2]; RASGRP1:APTX TSP classifier) was 98 days, the “difference in overall survival between predicted responders and progressors” value ([2]; RASGRP1 alone) was 56 days and the “median overall survival of predicted responders versus patients predicted to be resistant” value ([2]; two-gene classifier, relapsed or refractory AML) was “approximately 3 fold”.
